Measured values as given in ChEMBL document CHEMBL4819019, “Design, synthesis, antibacterial activity and toxicity of novel quaternary ammonium compounds based on pyridoxine and fatty acids” (Eur J Med Chem, 2021).

What was measured:
Staphylococcus aureus = experiment: Antibacterial activity against Staphylococcus aureus ATCC 29213 measured after 24 hrs by broth microdilution method; assay type: functional
Bacillus subtilis = experiment: Antibacterial activity against Bacillus subtilis 168 measured after 24 hrs by broth microdilution method; assay type: functional
Micrococcus luteus = experiment: Antibacterial activity against Micrococcus luteus clinical isolate measured after 24 hrs by broth microdilution method; assay type: functional
Escherichia coli = experiment: Antibacterial activity against Escherichia coli MG 1655 measured after 24 hrs by broth microdilution method; assay type: functional
Pseudomonas aeruginosa = experiment: Antibacterial activity against Pseudomonas aeruginosa ATCC 27853 measured after 24 hrs by broth microdilution method; assay type: functional
[1] = Lipophilicity, logP of the compound; assay type: physicochemical; settings: octanol/water

CCCCCCCCCCCCCC(=O)NCCC[N+](C)(C)Cc1nc(C)c2c(c1CO)COC(CCC)O2.[Cl-] (stereo unspecified)
MIC (Staphylococcus aureus): 2 µg/mL | MIC (Bacillus subtilis): 1 µg/mL | MIC (Micrococcus luteus): 1 µg/mL | MIC (Escherichia coli): 64 µg/mL | MIC (Pseudomonas aeruginosa): > 64 µg/mL | logP [1]: 1.62

CCCCCCCCCCCCCCCCCC[N+](C)(C)Cc1cnc(C)c2c1COC(C)(C)O2.[Cl-]
MIC (Staphylococcus aureus): 4 µg/mL | MIC (Bacillus subtilis): > 64 µg/mL | MIC (Micrococcus luteus): 16 µg/mL | MIC (Escherichia coli): > 64 µg/mL | MIC (Pseudomonas aeruginosa): > 64 µg/mL | logP [1]: 4.35

CCCCCCCCCCCCCCCCCC(=O)NCC[N+](C)(C)Cc1cnc(C)c2c1COC(C)(CCC)O2.[Cl-] (stereo unspecified)
MIC (Staphylococcus aureus): > 64 µg/mL | MIC (Bacillus subtilis): > 64 µg/mL | MIC (Micrococcus luteus): > 64 µg/mL | MIC (Escherichia coli): > 64 µg/mL | MIC (Pseudomonas aeruginosa): > 64 µg/mL | logP [1]: 4.02

CCCCCC(=O)NCCC[N+](C)(C)Cc1cnc(C)c2c1COC(CCC)O2.[Cl-] (stereo unspecified)
MIC (Staphylococcus aureus): > 64 µg/mL | MIC (Bacillus subtilis): > 64 µg/mL | MIC (Micrococcus luteus): > 64 µg/mL | MIC (Escherichia coli): > 64 µg/mL | MIC (Pseudomonas aeruginosa): > 64 µg/mL | logP [1]: -1.25

CCCCCCCCCCCCCC(=O)OCC[N+](C)(C)Cc1nc(C)c2c(c1CO)COC(CCC)O2.[Cl-] (stereo unspecified)
MIC (Staphylococcus aureus): 2 µg/mL | MIC (Bacillus subtilis): 2 µg/mL | MIC (Micrococcus luteus): 2 µg/mL | MIC (Escherichia coli): 64 µg/mL | MIC (Pseudomonas aeruginosa): > 64 µg/mL | logP [1]: 2.29

CCCCCCCCCCCCCC(=O)NCCC[N+](C)(C)Cc1cnc(C)c2c1COC(C)(CCC)O2.[Cl-] (stereo unspecified)
MIC (Staphylococcus aureus): 2 µg/mL | MIC (Bacillus subtilis): 2 µg/mL | MIC (Micrococcus luteus): 2 µg/mL | MIC (Escherichia coli): 2 µg/mL | MIC (Pseudomonas aeruginosa): > 64 µg/mL | logP [1]: 2.3

CCCCCCCCCCCCCCCC(=O)NCCC[N+](C)(C)Cc1cnc(C)c2c1COC(C)(C)O2.[Cl-]
MIC (Staphylococcus aureus): 4 µg/mL | MIC (Bacillus subtilis): 2 µg/mL | MIC (Micrococcus luteus): 2 µg/mL | MIC (Escherichia coli): > 64 µg/mL | MIC (Pseudomonas aeruginosa): 8 µg/mL | logP [1]: 2.36

CCCCCCCCCCCCCC(=O)OCCC[N+](C)(C)Cc1cnc(C)c2c1COC(CCC)O2.[Cl-] (stereo unspecified)
MIC (Staphylococcus aureus): 2 µg/mL | MIC (Bacillus subtilis): 2 µg/mL | MIC (Micrococcus luteus): 1 µg/mL | MIC (Escherichia coli): > 64 µg/mL | MIC (Pseudomonas aeruginosa): 4 µg/mL | logP [1]: 3.03

CCCCCCCC[N+](C)(C)Cc1nc(C)c2c(c1CO)COC(C)(C)O2.[Cl-]
MIC (Staphylococcus aureus): 64 µg/mL | MIC (Bacillus subtilis): 64 µg/mL | MIC (Micrococcus luteus): 64 µg/mL | MIC (Escherichia coli): 64 µg/mL | MIC (Pseudomonas aeruginosa): > 64 µg/mL | logP [1]: -0.78

CCCCCCCCCCCCCC(=O)NCCC[N+](C)(C)Cc1cnc(C)c2c1COC(CCCCCCCC)O2.[Cl-] (stereo unspecified)
MIC (Staphylococcus aureus): > 64 µg/mL | MIC (Bacillus subtilis): > 64 µg/mL | MIC (Micrococcus luteus): > 64 µg/mL | MIC (Escherichia coli): > 64 µg/mL | MIC (Pseudomonas aeruginosa): > 64 µg/mL | logP [1]: 4.53

CCCCCCCCCCCCCC(=O)OCCC[N+](C)(C)Cc1cnc(C)c2c1COC(CCCCCCCC)O2.[Cl-] (stereo unspecified)
MIC (Staphylococcus aureus): > 64 µg/mL | MIC (Bacillus subtilis): > 64 µg/mL | MIC (Micrococcus luteus): > 64 µg/mL | MIC (Escherichia coli): > 64 µg/mL | MIC (Pseudomonas aeruginosa): > 64 µg/mL | logP [1]: 5.25

CCCCCCCCCCCCCC(=O)OCCC[N+](C)(C)Cc1nc(C)c2c(c1CO)COC(CCC)O2.[Cl-] (stereo unspecified)
MIC (Staphylococcus aureus): 2 µg/mL | MIC (Bacillus subtilis): 2 µg/mL | MIC (Micrococcus luteus): 2 µg/mL | MIC (Escherichia coli): 64 µg/mL | MIC (Pseudomonas aeruginosa): > 64 µg/mL | logP [1]: 2.35

CCCCCCCCCCCC(=O)NCCC[N+](C)(C)Cc1cnc(C)c2c1COC(C)(CCC)O2.[Cl-] (stereo unspecified)
MIC (Staphylococcus aureus): 1 µg/mL | MIC (Bacillus subtilis): 4 µg/mL | MIC (Micrococcus luteus): 4 µg/mL | MIC (Escherichia coli): 8 µg/mL | MIC (Pseudomonas aeruginosa): 32 µg/mL | logP [1]: 1.41

CCCCCCCCCCCCCC(=O)NCCC[N+](C)(C)Cc1cnc(C)c2c1COC(CCCCC)O2.[Cl-] (stereo unspecified)
MIC (Staphylococcus aureus): 2 µg/mL | MIC (Bacillus subtilis): 1 µg/mL | MIC (Micrococcus luteus): 2 µg/mL | MIC (Escherichia coli): > 64 µg/mL | MIC (Pseudomonas aeruginosa): > 64 µg/mL | logP [1]: 3.19

CCCCCCCCCCCC(=O)NCCC[N+](C)(C)Cc1cnc(C)c2c1COC(C)(C)O2.[Cl-]
MIC (Staphylococcus aureus): 8 µg/mL | MIC (Bacillus subtilis): 8 µg/mL | MIC (Micrococcus luteus): 16 µg/mL | MIC (Escherichia coli): 64 µg/mL | MIC (Pseudomonas aeruginosa): 64 µg/mL | logP [1]: 0.58

CCCCCCCCCCCCCC(=O)OCCC[N+](C)(C)Cc1nc(C)c2c(c1CO)COC(C)(C)O2.[Cl-]
MIC (Staphylococcus aureus): 1 µg/mL | MIC (Bacillus subtilis): 0.5 µg/mL | MIC (Micrococcus luteus): 2 µg/mL | MIC (Escherichia coli): 64 µg/mL | MIC (Pseudomonas aeruginosa): > 64 µg/mL | logP [1]: 1.52

CCCCCCCCCCCCCCCC(=O)OCCC[N+](C)(C)Cc1cnc(C)c2c1COC(CCC)O2.[Cl-] (stereo unspecified)
MIC (Staphylococcus aureus): 32 µg/mL | MIC (Bacillus subtilis): 32 µg/mL | MIC (Micrococcus luteus): 8 µg/mL | MIC (Escherichia coli): > 64 µg/mL | MIC (Pseudomonas aeruginosa): 32 µg/mL | logP [1]: 3.92

CCCCCCCCCC(C)C1OCc2c(C[N+](C)(C)CCCNC(=O)CCCCC)cnc(C)c2O1.[Cl-] (stereo unspecified)
MIC (Staphylococcus aureus): > 64 µg/mL | MIC (Bacillus subtilis): > 64 µg/mL | MIC (Micrococcus luteus): > 64 µg/mL | MIC (Escherichia coli): > 64 µg/mL | MIC (Pseudomonas aeruginosa): > 64 µg/mL | logP [1]: 2.34

CCCCCCCCCCCCCC(=O)NCC[N+](C)(C)Cc1nc(C)c2c(c1CO)COC(CCC)O2.[Cl-] (stereo unspecified)
MIC (Staphylococcus aureus): 2 µg/mL | MIC (Bacillus subtilis): 2 µg/mL | MIC (Micrococcus luteus): 4 µg/mL | MIC (Escherichia coli): 64 µg/mL | MIC (Pseudomonas aeruginosa): > 64 µg/mL | logP [1]: 1.56

CCCCCCCCCCCCCCCC(=O)OCC[N+](C)(C)Cc1cnc(C)c2c1COC(CCC)O2.[Cl-] (stereo unspecified)
MIC (Staphylococcus aureus): 2 µg/mL | MIC (Bacillus subtilis): 4 µg/mL | MIC (Micrococcus luteus): 1 µg/mL | MIC (Escherichia coli): > 64 µg/mL | MIC (Pseudomonas aeruginosa): 8 µg/mL | logP [1]: 3.86

CCCCCCCCCCCCCCCC(=O)OCCC[N+](C)(C)Cc1cnc(C)c2c1COC(C)(C)O2.[Cl-]
MIC (Staphylococcus aureus): 16 µg/mL | MIC (Bacillus subtilis): 8 µg/mL | MIC (Micrococcus luteus): 2 µg/mL | MIC (Escherichia coli): > 64 µg/mL | MIC (Pseudomonas aeruginosa): 32 µg/mL | logP [1]: 3.09

CCCCCCCCCCCCCC(=O)OCCC[N+](C)(C)Cc1cnc(C)c2c1COC(C)(C)O2.[Cl-]
MIC (Staphylococcus aureus): 2 µg/mL | MIC (Bacillus subtilis): 2 µg/mL | MIC (Micrococcus luteus): 2 µg/mL | MIC (Escherichia coli): 16 µg/mL | MIC (Pseudomonas aeruginosa): 16 µg/mL | logP [1]: 2.2

CCCCCCCCCCCC(=O)NCC[N+](C)(C)Cc1cnc(C)c2c1COC(C)(C)O2.[Cl-]
MIC (Staphylococcus aureus): 1 µg/mL | MIC (Bacillus subtilis): 8 µg/mL | MIC (Micrococcus luteus): 4 µg/mL | MIC (Escherichia coli): 32 µg/mL | MIC (Pseudomonas aeruginosa): 32 µg/mL | logP [1]: 0.52

CCCCCCCCCCCC(=O)OCC[N+](C)(C)Cc1cnc(C)c2c1COC(CCC)O2.[Cl-] (stereo unspecified)
MIC (Staphylococcus aureus): 1 µg/mL | MIC (Bacillus subtilis): 2 µg/mL | MIC (Micrococcus luteus): 2 µg/mL | MIC (Escherichia coli): 4 µg/mL | MIC (Pseudomonas aeruginosa): 32 µg/mL | logP [1]: 2.08

CCCCCCCCCCCCCCCC(=O)OCC[N+](C)(C)Cc1cnc(C)c2c1COC(C)(C)O2.[Cl-]
MIC (Staphylococcus aureus): 0.5 µg/mL | MIC (Bacillus subtilis): 1 µg/mL | MIC (Micrococcus luteus): 0.5 µg/mL | MIC (Escherichia coli): > 64 µg/mL | MIC (Pseudomonas aeruginosa): 4 µg/mL | logP [1]: 3.03

CCCCCCCCCCCCCCCCCC(=O)NCCC[N+](C)(C)Cc1cnc(C)c2c1COC(C)(CCC)O2.[Cl-] (stereo unspecified)
MIC (Staphylococcus aureus): > 64 µg/mL | MIC (Bacillus subtilis): > 64 µg/mL | MIC (Micrococcus luteus): > 64 µg/mL | MIC (Escherichia coli): > 64 µg/mL | MIC (Pseudomonas aeruginosa): > 64 µg/mL | logP [1]: 4.08

CCCCCCCCCCCCCCCC(=O)NCCC[N+](C)(C)Cc1cnc(C)c2c1COC(C)(CCC)O2.[Cl-] (stereo unspecified)
MIC (Staphylococcus aureus): 2 µg/mL | MIC (Bacillus subtilis): 4 µg/mL | MIC (Micrococcus luteus): 2 µg/mL | MIC (Escherichia coli): 2 µg/mL | MIC (Pseudomonas aeruginosa): > 64 µg/mL | logP [1]: 3.19

CCCCCCCCCCCCCC(=O)NCCC[N+](C)(C)Cc1nc(C)c2c(c1CO)COC(C)(C)O2.[Cl-]
MIC (Staphylococcus aureus): 2 µg/mL | MIC (Bacillus subtilis): 2 µg/mL | MIC (Micrococcus luteus): 1 µg/mL | MIC (Escherichia coli): 16 µg/mL | MIC (Pseudomonas aeruginosa): > 64 µg/mL | logP [1]: 0.79

CCCCCCCCCCCCCCCC(=O)NCC[N+](C)(C)Cc1cnc(C)c2c1COC(C)(CCC)O2.[Cl-] (stereo unspecified)
MIC (Staphylococcus aureus): 8 µg/mL | MIC (Bacillus subtilis): 16 µg/mL | MIC (Micrococcus luteus): 16 µg/mL | MIC (Escherichia coli): > 64 µg/mL | MIC (Pseudomonas aeruginosa): > 64 µg/mL | logP [1]: 3.13

CCCCCCCCCCCCCC(=O)OCCC[N+](C)(C)Cc1cnc(C)c2c1COC(CCCCC)O2.[Cl-] (stereo unspecified)
MIC (Staphylococcus aureus): 8 µg/mL | MIC (Bacillus subtilis): 4 µg/mL | MIC (Micrococcus luteus): 8 µg/mL | MIC (Escherichia coli): > 64 µg/mL | MIC (Pseudomonas aeruginosa): > 64 µg/mL | logP [1]: 3.92

CCCCCCCCCCCC(=O)OCC[N+](C)(C)Cc1cnc(C)c2c1COC(C)(C)O2.[Cl-]
MIC (Staphylococcus aureus): 4 µg/mL | MIC (Bacillus subtilis): 4 µg/mL | MIC (Micrococcus luteus): 4 µg/mL | MIC (Escherichia coli): 16 µg/mL | MIC (Pseudomonas aeruginosa): 64 µg/mL | logP [1]: 1.25
